We go through eight compounds from ChEMBL document CHEMBL1629537, “Non-natural macrocyclic inhibitors of histone deacetylases: design, synthesis, and activity” (J Med Chem, 2010).

SMILES strings stand for the structures. pIC50: −log10 of the molar value.

One test deals with T1, Histone deacetylase 8 (Homo sapiens, UniProt Q9BY41).
T1 sequence (Q9BY41 whole entry): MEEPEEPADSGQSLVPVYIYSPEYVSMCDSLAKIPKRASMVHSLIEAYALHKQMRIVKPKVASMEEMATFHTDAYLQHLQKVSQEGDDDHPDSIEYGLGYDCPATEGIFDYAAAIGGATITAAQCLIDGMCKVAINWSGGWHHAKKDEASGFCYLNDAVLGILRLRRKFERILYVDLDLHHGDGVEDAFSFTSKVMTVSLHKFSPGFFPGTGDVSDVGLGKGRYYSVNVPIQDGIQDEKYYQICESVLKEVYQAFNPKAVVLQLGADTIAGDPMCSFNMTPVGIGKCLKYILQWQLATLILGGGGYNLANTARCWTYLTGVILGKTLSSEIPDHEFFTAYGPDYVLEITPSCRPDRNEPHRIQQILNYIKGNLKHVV
Kind of test: Inhibition of human HDAC8 by fluorimetric assay.

For a further test, the system named is HCT-116. Kind of test: cells. The test is classed as functional, cell-based. The following applies: Homo sapiens, HCT-116, 48 h.
For the next test, the target named is T2, Histone deacetylase 11 (Homo sapiens, UniProt Q96DB2).
T2 sequence (Q96DB2 whole entry): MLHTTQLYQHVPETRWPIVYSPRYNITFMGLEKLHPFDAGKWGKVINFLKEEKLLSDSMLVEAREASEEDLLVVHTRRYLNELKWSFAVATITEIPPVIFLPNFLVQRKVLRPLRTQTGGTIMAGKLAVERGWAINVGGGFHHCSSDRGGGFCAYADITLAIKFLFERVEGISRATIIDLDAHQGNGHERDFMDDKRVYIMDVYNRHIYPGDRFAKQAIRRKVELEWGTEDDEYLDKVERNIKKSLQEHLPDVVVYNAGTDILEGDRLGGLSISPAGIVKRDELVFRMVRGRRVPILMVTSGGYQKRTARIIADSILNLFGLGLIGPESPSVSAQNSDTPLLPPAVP
Nature of the test: Inhibition of human HDAC11 by fluorimetric assay.

The target in test [1] is T3, Protein deacetylase HDAC6 (Homo sapiens, UniProt Q9UBN7).
T3 sequence (Q9UBN7 whole entry): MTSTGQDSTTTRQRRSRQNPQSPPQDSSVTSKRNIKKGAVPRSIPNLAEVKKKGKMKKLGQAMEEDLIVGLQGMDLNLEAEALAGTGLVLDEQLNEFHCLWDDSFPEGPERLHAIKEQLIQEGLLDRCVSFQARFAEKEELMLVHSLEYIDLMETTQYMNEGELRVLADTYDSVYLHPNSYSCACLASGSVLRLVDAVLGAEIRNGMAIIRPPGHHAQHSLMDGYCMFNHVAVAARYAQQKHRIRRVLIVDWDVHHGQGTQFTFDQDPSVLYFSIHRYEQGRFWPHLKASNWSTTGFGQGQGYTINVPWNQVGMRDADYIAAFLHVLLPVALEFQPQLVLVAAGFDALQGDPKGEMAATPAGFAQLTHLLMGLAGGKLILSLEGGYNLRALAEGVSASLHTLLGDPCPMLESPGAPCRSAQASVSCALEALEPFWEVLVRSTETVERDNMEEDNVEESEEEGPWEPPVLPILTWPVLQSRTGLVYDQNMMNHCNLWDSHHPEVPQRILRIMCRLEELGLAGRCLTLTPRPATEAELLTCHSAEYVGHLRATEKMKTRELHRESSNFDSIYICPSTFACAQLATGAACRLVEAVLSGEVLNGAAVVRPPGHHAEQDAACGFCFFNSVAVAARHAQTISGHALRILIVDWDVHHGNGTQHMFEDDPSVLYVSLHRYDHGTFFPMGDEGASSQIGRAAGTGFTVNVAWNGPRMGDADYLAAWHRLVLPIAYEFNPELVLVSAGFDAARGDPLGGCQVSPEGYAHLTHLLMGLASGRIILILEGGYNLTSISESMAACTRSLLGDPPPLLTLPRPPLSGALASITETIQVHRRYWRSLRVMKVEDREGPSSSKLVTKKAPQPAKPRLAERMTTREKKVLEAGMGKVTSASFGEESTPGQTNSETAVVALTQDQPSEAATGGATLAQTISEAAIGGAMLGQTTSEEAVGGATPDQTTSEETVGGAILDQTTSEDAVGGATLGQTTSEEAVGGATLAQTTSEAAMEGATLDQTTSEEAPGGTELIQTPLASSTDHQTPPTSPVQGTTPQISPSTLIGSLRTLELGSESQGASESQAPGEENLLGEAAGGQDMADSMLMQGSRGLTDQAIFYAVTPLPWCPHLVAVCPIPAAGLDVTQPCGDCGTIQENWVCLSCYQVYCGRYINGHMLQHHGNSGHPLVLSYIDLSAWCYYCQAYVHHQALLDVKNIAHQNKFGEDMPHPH
Kind of test: Inhibition of human HDAC6 by fluorimetric assay.

Another test deals with Histone deacetylase 3 (Homo sapiens, UniProt O15379).
A further test deals with NCI-H460. Nature of the test: cells. Format: functional, cell-based. The settings on record: Homo sapiens, NCI-H460, 48 h.
For a further test, the target named is Histone deacetylase 4 (Homo sapiens, UniProt P56524). Kind of test: Inhibition of human HDAC4 by fluorimetric assay.
For another test, the target named is Histone deacetylase 1 (Homo sapiens, UniProt Q13547). Nature of the test: Inhibition of human HDAC1 by fluorimetric assay.
Another test has as its target Histone deacetylase 5 (Homo sapiens, UniProt Q9UQL6). Kind of test: Inhibition of human HDAC5 by fluorimetric assay.
Test [2] concerns the target T4, Polyamine deacetylase HDAC10 (Homo sapiens, UniProt Q969S8).
T4 sequence (Q969S8 whole entry): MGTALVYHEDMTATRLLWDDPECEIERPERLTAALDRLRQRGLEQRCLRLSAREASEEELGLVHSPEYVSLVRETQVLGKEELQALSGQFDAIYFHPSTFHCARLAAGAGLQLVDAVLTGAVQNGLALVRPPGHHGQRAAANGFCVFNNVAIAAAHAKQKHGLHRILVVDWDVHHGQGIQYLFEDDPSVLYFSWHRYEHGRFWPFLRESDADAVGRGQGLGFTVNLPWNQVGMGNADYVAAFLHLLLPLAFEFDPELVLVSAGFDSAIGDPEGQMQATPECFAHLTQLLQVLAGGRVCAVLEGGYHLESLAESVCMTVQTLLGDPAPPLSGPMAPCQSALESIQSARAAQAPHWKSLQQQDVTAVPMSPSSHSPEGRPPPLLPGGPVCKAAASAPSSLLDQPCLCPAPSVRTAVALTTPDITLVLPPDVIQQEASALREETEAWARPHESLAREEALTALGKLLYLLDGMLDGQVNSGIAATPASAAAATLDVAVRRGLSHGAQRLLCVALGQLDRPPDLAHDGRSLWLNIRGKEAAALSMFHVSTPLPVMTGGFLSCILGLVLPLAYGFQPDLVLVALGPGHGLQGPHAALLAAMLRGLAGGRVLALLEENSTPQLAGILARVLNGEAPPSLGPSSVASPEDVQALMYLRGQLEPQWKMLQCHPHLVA
Nature of the test: Inhibition of human HDAC10 by fluorimetric assay.

Another test concerns the target Histone deacetylase 2 (Homo sapiens, UniProt Q92769).
A further test concerns the target Histone deacetylase 9 (Homo sapiens, UniProt Q9UKV0). Nature of the test: Inhibition of human HDAC9 by fluorimetric assay.

Sequence of Histone deacetylase 2 (Q92769 whole entry): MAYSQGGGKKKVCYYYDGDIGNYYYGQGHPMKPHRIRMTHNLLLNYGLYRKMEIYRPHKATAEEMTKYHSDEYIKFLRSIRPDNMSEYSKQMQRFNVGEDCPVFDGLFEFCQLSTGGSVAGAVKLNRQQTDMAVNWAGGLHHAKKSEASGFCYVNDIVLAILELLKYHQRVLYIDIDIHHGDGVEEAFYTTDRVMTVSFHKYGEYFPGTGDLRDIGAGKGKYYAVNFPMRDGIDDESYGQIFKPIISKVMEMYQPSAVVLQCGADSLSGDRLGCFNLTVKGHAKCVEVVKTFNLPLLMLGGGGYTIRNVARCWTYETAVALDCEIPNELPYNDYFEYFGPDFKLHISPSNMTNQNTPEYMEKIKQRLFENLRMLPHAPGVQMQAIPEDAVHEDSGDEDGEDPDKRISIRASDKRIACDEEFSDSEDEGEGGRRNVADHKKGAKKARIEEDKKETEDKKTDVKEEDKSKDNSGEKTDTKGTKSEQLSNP
Sequence of Histone deacetylase 1 (Q13547 whole entry): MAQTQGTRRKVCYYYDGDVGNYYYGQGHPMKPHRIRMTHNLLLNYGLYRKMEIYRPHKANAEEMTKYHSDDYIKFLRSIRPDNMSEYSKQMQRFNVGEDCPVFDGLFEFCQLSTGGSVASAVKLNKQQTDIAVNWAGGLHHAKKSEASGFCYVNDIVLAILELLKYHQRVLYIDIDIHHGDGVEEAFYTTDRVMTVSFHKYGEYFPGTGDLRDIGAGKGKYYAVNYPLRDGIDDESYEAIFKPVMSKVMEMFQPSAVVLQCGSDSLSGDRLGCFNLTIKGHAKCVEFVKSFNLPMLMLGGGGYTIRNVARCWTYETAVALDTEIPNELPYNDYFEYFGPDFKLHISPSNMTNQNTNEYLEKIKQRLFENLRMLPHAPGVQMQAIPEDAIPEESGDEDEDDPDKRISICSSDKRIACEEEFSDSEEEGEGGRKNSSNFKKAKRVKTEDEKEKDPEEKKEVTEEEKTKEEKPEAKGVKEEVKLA
Sequence of Histone deacetylase 3 (O15379 whole entry): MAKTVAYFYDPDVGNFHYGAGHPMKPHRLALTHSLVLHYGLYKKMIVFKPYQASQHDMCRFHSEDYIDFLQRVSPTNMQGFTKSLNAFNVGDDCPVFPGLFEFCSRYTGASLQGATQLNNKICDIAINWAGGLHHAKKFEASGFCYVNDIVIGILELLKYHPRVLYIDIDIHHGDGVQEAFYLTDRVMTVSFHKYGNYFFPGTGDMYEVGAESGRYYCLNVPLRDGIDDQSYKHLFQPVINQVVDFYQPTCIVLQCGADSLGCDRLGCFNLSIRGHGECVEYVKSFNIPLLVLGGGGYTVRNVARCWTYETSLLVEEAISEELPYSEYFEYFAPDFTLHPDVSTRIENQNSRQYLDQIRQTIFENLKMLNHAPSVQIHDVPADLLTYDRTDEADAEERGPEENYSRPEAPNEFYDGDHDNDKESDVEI
Sequence of Histone deacetylase 9 (Q9UKV0 whole entry): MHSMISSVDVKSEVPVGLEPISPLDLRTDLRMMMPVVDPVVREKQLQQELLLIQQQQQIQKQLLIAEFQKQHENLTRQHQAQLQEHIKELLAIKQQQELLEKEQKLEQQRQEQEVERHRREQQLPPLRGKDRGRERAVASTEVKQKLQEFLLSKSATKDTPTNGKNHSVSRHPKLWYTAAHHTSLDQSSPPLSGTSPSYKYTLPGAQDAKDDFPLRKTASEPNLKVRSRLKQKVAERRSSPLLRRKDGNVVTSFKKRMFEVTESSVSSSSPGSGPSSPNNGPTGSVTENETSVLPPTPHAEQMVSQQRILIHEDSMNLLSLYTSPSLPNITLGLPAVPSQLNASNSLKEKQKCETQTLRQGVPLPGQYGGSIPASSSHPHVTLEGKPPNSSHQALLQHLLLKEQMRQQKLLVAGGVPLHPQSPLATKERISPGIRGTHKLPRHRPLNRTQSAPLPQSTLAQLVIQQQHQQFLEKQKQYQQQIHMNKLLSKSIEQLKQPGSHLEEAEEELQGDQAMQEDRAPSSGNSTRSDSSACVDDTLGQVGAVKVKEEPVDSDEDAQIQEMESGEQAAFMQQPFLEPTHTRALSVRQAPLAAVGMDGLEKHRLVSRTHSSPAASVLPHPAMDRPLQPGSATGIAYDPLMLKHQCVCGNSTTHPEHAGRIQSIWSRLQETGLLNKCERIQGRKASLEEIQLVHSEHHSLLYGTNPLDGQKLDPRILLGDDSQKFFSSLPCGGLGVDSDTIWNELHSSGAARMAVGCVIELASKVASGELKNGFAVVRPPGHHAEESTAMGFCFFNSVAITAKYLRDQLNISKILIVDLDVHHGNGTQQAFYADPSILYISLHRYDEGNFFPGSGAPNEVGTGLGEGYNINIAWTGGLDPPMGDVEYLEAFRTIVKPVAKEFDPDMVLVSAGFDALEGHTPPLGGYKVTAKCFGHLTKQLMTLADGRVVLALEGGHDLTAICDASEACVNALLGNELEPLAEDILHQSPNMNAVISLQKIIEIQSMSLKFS
Sequence of Histone deacetylase 5 (Q9UQL6 whole entry): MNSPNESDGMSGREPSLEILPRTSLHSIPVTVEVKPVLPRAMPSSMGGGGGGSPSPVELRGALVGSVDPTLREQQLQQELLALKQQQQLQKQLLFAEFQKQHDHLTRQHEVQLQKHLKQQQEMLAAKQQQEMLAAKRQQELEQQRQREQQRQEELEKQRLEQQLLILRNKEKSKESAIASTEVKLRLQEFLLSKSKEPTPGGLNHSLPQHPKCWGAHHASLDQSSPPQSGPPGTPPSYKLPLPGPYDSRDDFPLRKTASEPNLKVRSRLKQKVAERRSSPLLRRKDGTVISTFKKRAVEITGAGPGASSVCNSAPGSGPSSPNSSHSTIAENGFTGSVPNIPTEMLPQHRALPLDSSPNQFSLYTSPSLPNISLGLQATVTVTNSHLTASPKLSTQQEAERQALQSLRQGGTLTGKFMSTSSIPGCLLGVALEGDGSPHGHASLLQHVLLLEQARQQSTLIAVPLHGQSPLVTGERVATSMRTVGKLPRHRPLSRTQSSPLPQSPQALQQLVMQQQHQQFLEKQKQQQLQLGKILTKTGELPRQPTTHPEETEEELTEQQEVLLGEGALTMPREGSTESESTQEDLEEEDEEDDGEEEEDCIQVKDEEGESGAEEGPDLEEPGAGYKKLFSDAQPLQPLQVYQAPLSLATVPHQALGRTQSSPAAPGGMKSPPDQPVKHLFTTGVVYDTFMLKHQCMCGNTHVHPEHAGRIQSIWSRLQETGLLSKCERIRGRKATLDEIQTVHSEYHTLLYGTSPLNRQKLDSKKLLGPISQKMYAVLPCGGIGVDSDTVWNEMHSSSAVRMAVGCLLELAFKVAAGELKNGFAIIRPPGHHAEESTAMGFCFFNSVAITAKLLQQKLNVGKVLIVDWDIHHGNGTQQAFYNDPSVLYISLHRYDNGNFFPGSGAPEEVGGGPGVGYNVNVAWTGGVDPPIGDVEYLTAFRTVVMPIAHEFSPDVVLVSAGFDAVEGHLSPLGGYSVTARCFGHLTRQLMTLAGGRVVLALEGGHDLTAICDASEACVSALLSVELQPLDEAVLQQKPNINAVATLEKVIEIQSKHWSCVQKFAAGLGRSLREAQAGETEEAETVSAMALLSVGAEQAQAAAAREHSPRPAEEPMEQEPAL
Sequence of Histone deacetylase 4 (P56524 whole entry): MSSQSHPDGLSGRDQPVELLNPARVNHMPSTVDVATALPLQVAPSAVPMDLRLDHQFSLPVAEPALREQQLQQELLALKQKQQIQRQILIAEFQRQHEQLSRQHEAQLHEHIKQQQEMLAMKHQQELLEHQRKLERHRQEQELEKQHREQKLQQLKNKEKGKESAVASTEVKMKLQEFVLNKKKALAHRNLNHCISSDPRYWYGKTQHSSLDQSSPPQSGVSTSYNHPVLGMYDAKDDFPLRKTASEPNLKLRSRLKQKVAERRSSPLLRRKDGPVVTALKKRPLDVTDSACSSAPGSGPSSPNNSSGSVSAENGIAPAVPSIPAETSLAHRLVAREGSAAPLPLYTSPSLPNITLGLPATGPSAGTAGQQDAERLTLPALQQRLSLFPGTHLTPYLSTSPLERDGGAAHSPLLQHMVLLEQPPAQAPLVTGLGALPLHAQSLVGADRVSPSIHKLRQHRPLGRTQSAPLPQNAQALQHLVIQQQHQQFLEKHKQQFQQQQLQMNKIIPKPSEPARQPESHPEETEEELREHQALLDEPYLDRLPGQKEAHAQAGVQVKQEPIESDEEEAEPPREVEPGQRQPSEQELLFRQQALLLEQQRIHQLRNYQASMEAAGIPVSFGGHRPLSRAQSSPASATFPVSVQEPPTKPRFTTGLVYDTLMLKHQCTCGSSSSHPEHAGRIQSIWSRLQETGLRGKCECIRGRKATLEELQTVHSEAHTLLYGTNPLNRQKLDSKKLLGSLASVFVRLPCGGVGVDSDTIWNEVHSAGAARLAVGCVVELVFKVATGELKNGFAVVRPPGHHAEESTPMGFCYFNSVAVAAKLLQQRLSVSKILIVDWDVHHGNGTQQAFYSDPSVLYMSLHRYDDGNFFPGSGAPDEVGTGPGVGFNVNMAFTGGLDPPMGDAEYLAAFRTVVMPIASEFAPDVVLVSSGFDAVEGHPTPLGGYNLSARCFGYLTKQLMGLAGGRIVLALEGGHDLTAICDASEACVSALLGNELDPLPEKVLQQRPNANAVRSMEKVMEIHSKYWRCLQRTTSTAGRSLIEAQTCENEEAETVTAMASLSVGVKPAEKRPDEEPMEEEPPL

As for `COc1cc2cc(c1)COc1ccccc1NC(=O)[C@H](CCCCCC(=O)NO)OCCC2`, the negative logarithm of the IC50 (pIC50) (usually the negative decadic logarithm of the IC50, by convention in mol/L) was 6.87 against Histone deacetylase 8; 6.28 in the test with HCT-116; 6.99 against Histone deacetylase 11; 8.46 in test [1]; 7.03 at Histone deacetylase 3; 6.13 in the test on NCI-H460. For the same compound, the pIC50 against Histone deacetylase 4 was 6.93; at Histone deacetylase 1 it was 7.14; against Histone deacetylase 5 it was 6.96; in test [2], 6.72; on Histone deacetylase 2, 6.57; against Histone deacetylase 9, 6.91.
Consider `COc1cc2cc(c1)COc1ccccc1NC(=O)[C@@H](CCCCCC(=O)NO)OCCC2`, for which the pIC50 was 7.04 at Histone deacetylase 8; 6.07 in the test with HCT-116; 6.76 against Histone deacetylase 11; 8.41 in test [1]; 7.02 on Histone deacetylase 3; 6.17 with NCI-H460. Further, the pIC50 against Histone deacetylase 4 is 6.34; against Histone deacetylase 1 it was 6.99; against Histone deacetylase 5, 6.82; in test [2], 6.70; at Histone deacetylase 2, 6.37; on Histone deacetylase 9, 6.49.
Regarding `O=C(CCCCCC1OCCCCCCOc2ccccc2NC1=O)NO` (racemic), the pIC50 on Histone deacetylase 8 was 5.96; in the test on HCT-116 it was 6.24; against Histone deacetylase 11, 6.25; in [1] it was 8.00; against Histone deacetylase 3 it was 6.75; in the test on NCI-H460, 6.00. The pIC50 on Histone deacetylase 4 was 5.92; against Histone deacetylase 1, 6.25; at Histone deacetylase 5 it was 6.06; in test [2] it was 6.17; against Histone deacetylase 2 it was 5.80; against Histone deacetylase 9 it was 6.16.
As to `O=C(CCCCCC1OCCCCCCCOc2ccccc2NC1=O)NO` (racemic), the negative-log IC50 (pIC50) was 6.54 at Histone deacetylase 8; 6.46 in the test with HCT-116; 6.26 at Histone deacetylase 11; 8.03 in test [1]; 6.62 at Histone deacetylase 3; 6.21 with NCI-H460. Also, the negative logarithm of the IC50 (pIC50) was 5.90 against Histone deacetylase 4; 6.36 on Histone deacetylase 1; 6.16 on Histone deacetylase 5; 6.02 in test [2]; 5.81 on Histone deacetylase 2; 5.98 against Histone deacetylase 9.
In the case of `COc1cc2cc(c1)COc1ccccc1NC(=O)C(CCCCCC(=O)NO)OCCC2` (racemic), the pIC50 was 6.35 against Histone deacetylase 8; 6.16 in the test with HCT-116; 6.65 against Histone deacetylase 11; 8.07 in [1]; 6.61 against Histone deacetylase 3; 6.06 in the test on NCI-H460. In addition, the pIC50 on Histone deacetylase 4 was 6.35; against Histone deacetylase 1 it was 6.69; against Histone deacetylase 5, 6.47; in test [2], 6.49; on Histone deacetylase 2, 6.10; against Histone deacetylase 9, 6.47.
In the case of `COc1ccc(COC(CCCCCC(=O)NO)C(=O)Nc2ccccc2)cc1` (racemic), the pIC50 is 6.48 against Histone deacetylase 8; 6.71 at Histone deacetylase 11; 7.70 in test [1]; 6.88 at Histone deacetylase 3; 6.19 at Histone deacetylase 4; 7.27 against Histone deacetylase 1. The negative logarithm of the IC50 (pIC50) was 6.87 against Histone deacetylase 5, 6.75 in test [2], 6.60 against Histone deacetylase 2 and 6.61 against Histone deacetylase 9.
As for `O=C(/C=C/c1ccc(CN(CCO)CCc2c[nH]c3ccccc23)cc1)NO` [DACINOSTAT], the pIC50 in the test with HCT-116 is 7.74; in the test with NCI-H460 it was 7.15.
For `CC(/C=C/C(=O)NO)=C\[C@@H](C)C(=O)c1ccc(N(C)C)cc1` [TRICHOSTATIN], in that order: 7.37 and 7.00.
